A short description of one data set: Solubility in water. It counts as physicochemical.
The test system of another data set is leukocyte. Particulars: in vitro, cited from earlier work.
Data set [1] concerns Chung model as a rat neuropathic pain model. As to the kind of experiment: von Frey test, pain threshold in the Chung model. Particulars: for pain threshold at the von Frey test: vs distilled water-dosed group; for pain threshold, dose dependence: 1 to 6 g/kg oral. It counts as in vivo. Here is the method: Male SD rats of age 6 weeks were divided into groups, each group consisting of 10 rats. So as to examine the effect of a test substance on neuropathic pain, the Chung model was prepared. Specifically, unilateral 5-th and 6-th lumbar pulp nerves of the lumbar pulp nerves were completely knotted at a site as close as possible to lumbar vertebrae. After a 10-day recovery period, the von Frey test was done on the footpad on the surgery side, to measure the pain threshold. The von Frey test was done three times at a 1-week interval as drug holiday. At the first test, the effect of D-allose on the pain threshold was examined; and at the second test and the third test, the effects of D-psicose and a mixture of D-allose and D-psicose on the pain threshold were examined. The test substances were all dissolved in distilled water. The dose in volume was 5 mL/kg for oral administration. The pain threshold was measured immediately before the administration of test substances, and 15 minutes, 30 minutes, 60 minutes and 120 minutes after the administration. The results are expressed as mean and standard error. The significance of the mean was tested by the Dunnett's multiple test. Neuropathic pain models are frequently used as human neuralgia models for making research works on pain and screening for analgesics. […] The Chung model as the neuropathic pain model used in the research works is a model with a characteristic feature such that the model is afflicted with a strong pain on contact stimulation, and is known that the model is annoyed with a pain very similar to human neuralgia (Exp. Brain Res., 113, 200-206, 1997). In such model, the von Frey test is frequently used so as to assay the pain intensity via contact. The von Frey test is a method for observing whether or not an animal when the footpad is pressed with a fine metal wire withdraws the leg. When the animal withdraws the leg, the force just pressing the footpad is defined the threshold then.

The structures appear in SMILES notation.

Consider `O=C[C@H](O)[C@H](O)[C@H](O)[C@H](O)CO` [D-allose], for which the solubility in water result in “Solubility in water” was “highly soluble in water”. In addition, the active oxygen generation result in the data set with leukocyte (leukocyte) is “action of suppressing active oxygen generation”. Also, the “pain threshold at the von Frey test” value in data set [1] (1 g/kg oral, N=10) is “not significantly different”; in data set [1] (3 g/kg oral, 15 minutes after administration) it was “significant increase”; in data set [1] (6 g/kg oral, 15, 30 and 60 minutes after administration), “significant increase”. Besides, the “pain threshold, dose dependence” value in data set [1] (single administration) is recorded as “highly raised, in a manner proportional to the dose”.

Consider `O=C(CO)[C@H](O)[C@H](O)[C@H](O)CO` [D-psicose], for which the solubility in water result in the data set “Solubility in water” was “highly soluble in water”. Further, in the data set with leukocyte (similar experiments), the MCP-1 secretion result is reported as “MCP-1 secretion-suppressing action” and the active oxygen scavenging entry is “active oxygen-scavenging action”. The “pain threshold at the von Frey test” value in data set [1] (1 g/kg oral, 15 minutes after administration) was “not significantly different”. Moreover, in data set [1] (3 g/kg oral, 15 and 30 minutes after administration), the “pain threshold at the von Frey test” value is “significant increase”. The “pain threshold, dose dependence” value in data set [1] (single administration) is “highly raised, in a manner proportional to the dose”. For the same compound, the “increase of the threshold compared with the administration of D-allose” value in data set [1] (single administration, oral) was “greater”.

The values above are taken from patent US8012940B2, “Utilization of anti-neuropathic pain effect of D-allose and D-psicose” (Teikoku Seiyaku Co., Ltd., priority 2005, dated 2011).
